A value given as a limit tells only on which side of the number the result lay.

The first assay addresses T1, His6-TEV-PPARγ-(234-505) (Homo sapiens, UniProt P37231).
T1 construct: The His6-TEV-PPARγ-(234-505) protein for assay was expressed and purified; TEV cleavage site (N); made in house
T1 sequence (P37231 234-505): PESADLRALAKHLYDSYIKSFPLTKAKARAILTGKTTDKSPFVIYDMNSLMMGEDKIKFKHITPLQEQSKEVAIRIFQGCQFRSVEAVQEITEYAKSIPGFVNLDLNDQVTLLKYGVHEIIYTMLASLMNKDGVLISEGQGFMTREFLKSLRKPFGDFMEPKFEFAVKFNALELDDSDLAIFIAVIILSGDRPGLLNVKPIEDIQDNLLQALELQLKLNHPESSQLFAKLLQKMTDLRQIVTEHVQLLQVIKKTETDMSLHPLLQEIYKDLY
Briefly: TR-FRET Assay to Measure Co-R Peptide Recruitment to PPARγ. The following applies: Co-R peptide (SMRT-ID2) recruitment; top final concentration 20 μM; read-out: TR-FRET i-Ag; AC50. The class given is biochemical. The gist of the method: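 Corepressor recruitment is measured by adding terbium-labeled anti-His antibody and FITC SMRT-ID2 peptide, at 5 and 200 nM final, after a 20-minute room-temperature protein–compound incubation. After one further hour, signal is converted to percent response between DMSO and 500 nM T0070907 wells.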
(In general: TR-FRET usually uses a lanthanide donor and a delayed reading to cut background.)
Consider `COc1cc(-c2cc(C(=O)N3CCC(C(=O)N[C@H]4CC[C@@H](C)CC4)CC3)n[nH]2)ccn1` [Example 107, 1-(5-(2-methoxypyridin-4-yl)-1H-pyrazole-3-carbonyl)-N-((1s,4s)-4-methylcyclohexyl)piperidine-4-carboxamide], for which the AC50 was found to be 342 nM.

Still in this assay, the particulars now being: Co-R peptide recruitment to PPARγ; read-out: TR-FRET AC50.
On to `COc1cc(-c2cc(C(=O)N3CCC(C(=O)Nc4cnncc4Cl)CC3)n[nH]2)c(Cl)cn1` [1-[5-(5-chloro-2-methoxypyridin-4-yl)-1H-pyrazole-3-carbonyl]-N-(5-chloropyridazin-4-yl)piperidine-4-carboxamide], for which the AC50 is over 1000 nM.

With `COc1cc(-c2cc(C(=O)N3CCC(C(=O)NCC4OCCO4)CC3)n[nH]2)c(Cl)cn1` [1-[5-(5-chloro-2-methoxypyridin-4-yl)-1H-pyrazole-3-carbonyl]-N-[(1,3-dioxolan-2-yl)methyl]piperidine-4-carboxamide], the AC50 was over 1000 nM.

As to `COc1cc(-c2cc(C(=O)N3CCC(C(=O)NCc4ccc5c(c4)CN(C)C5)CC3)n[nH]2)c(Cl)cn1` [1-[5-(5-chloro-2-methoxypyridin-4-yl)-1H-pyrazole-3-carbonyl]-N-[(2-methyl-2,3-dihydro-1H-isoindol-5-yl)methyl]piperidine-4-carboxamide], the AC50 was over 1000 nM.

Regarding `COc1cc(-c2cc(C(=O)N3CCC[C@@H](C(=O)NCc4cccc(Cl)c4)C3)n[nH]2)c(F)cn1` [(3R)—N-[(3-chlorophenyl)methyl]-1-[5-(5-fluoro-2-methoxypyridin-4-yl)-1H-pyrazole-3-carbonyl]piperidine-3-carboxamide], the AC50 was over 1000 nM.

Take `CC1CCC(NC(=O)C2CCN(C(=O)c3cc(-c4ccnc(C(=O)O)c4)[nH]n3)CC2)CC1` (centres unmarked): the AC50 is over 1000 nM.

For the compound `COc1cc(-c2cc(C(=O)N3CCC(C(=O)Nc4cncc(C)n4)CC3)n[nH]2)c(Cl)cn1` [1-[5-(5-chloro-2-methoxypyridin-4-yl)-1H-pyrazole-3-carbonyl]-N-(6-methylpyrazin-2-yl)piperidine-4-carboxamide], the AC50 was over 1000 nM.

In the case of `COc1cc(-c2cc(C(=O)N3CCC(C(=O)NCc4ccn(C)n4)CC3)n[nH]2)c(Cl)cn1` [1-[5-(5-chloro-2-methoxypyridin-4-yl)-1H-pyrazole-3-carbonyl]-N-[(1-methyl-1H-pyrazol-3-yl)methyl]piperidine-4-carboxamide], the AC50 is over 1000 nM.

Regarding `COc1cc(-c2cc(C(=O)N3CCC(C(=O)NC45COC(C4)C5)CC3)n[nH]2)c(Cl)cn1` [1-[5-(5-chloro-2-methoxypyridin-4-yl)-1H-pyrazole-3-carbonyl]-N-{2-oxabicyclo[2.1.1]hexan-4-yl}piperidine-4-carboxamide], the AC50 was over 1000 nM.

On to `CN1CCCN(C(=O)C2CCN(C(=O)c3cc(-c4ccncc4)[nH]n3)CC2)CC1`, for which the AC50 is over 1000 nM.

In the case of `CN(CCC#N)C(=O)C1CCN(C(=O)c2cc(-c3ccncc3)[nH]n2)CC1` [N-(2-cyanoethyl)-N-methyl-1-[5-(pyridin-4-yl)-1H-pyrazole-3-carbonyl]piperidine-4-carboxamide], the AC50 is over 1000 nM.

As for `C[C@H]1CC[C@H](NC(=O)C2CCN(C(=O)c3cc(-c4ccncc4)[nH]n3)CC2)CC1`, the AC50 was over 1000 nM.

Consider `COc1cc(F)c(NC(=O)C2CCN(C(=O)c3cc(-c4cc(OC)ncc4Cl)[nH]n3)CC2)c(F)c1` [1-[5-(5-chloro-2-methoxypyridin-4-yl)-1H-pyrazole-3-carbonyl]-N-(2,6-difluoro-4-methoxyphenyl)piperidine-4-carboxamide], for which the AC50 was over 1000 nM.

Consider `COc1cc(-c2cc(C(=O)N3CCC(C(=O)NCC4(O)CCC4)CC3)n[nH]2)c(Cl)cn1` [1-[5-(5-chloro-2-methoxypyridin-4-yl)-1H-pyrazole-3-carbonyl]-N-[(1-hydroxycyclobutyl)methyl]piperidine-4-carboxamide], for which the AC50 is over 1000 nM.

`COc1cc(-c2cc(C(=O)N3CCC(C(=O)N[C@@H]4CCCc5cccnc54)CC3)n[nH]2)c(Cl)cn1` [1-[5-(5-chloro-2-methoxypyridin-4-yl)-1H-pyrazole-3-carbonyl]-N-[(8R)-5,6,7,8-tetrahydroquinolin-8-yl]piperidine-4-carboxamide]: the AC50 is over 1000 nM.

`COc1cc(-c2cc(C(=O)N3CCC(C(=O)NCc4ncc(C(F)F)cn4)CC3)n[nH]2)c(Cl)cn1` [1-[5-(5-chloro-2-methoxypyridin-4-yl)-1H-pyrazole-3-carbonyl]-N-{[5-(difluoromethyl)pyrimidin-2-yl]methyl}piperidine-4-carboxamide]: the AC50 was over 1000 nM.

As to `COc1cc(-c2cc(C(=O)N3CCC(C(=O)NCC4(C)CCCO4)CC3)n[nH]2)c(Cl)cn1` (centres unmarked) [1-[5-(5-chloro-2-methoxypyridin-4-yl)-1H-pyrazole-3-carbonyl]-N-[(2-methyloxolan-2-yl)methyl]piperidine-4-carboxamide], the AC50 is over 1000 nM.

Consider `CS(=O)(=O)N1CCC(NC(=O)C2CCN(C(=O)c3cc(-c4ccncc4)[nH]n3)CC2)CC1` [N-(1-methanesulfonylpiperidin-4-yl)-1-[5-(pyridin-4-yl)-1H-pyrazole-3-carbonyl]piperidine-4-carboxamide], for which the AC50 was over 1000 nM.

In the case of `O=C(c1cc(-c2ccncc2)[nH]n1)N1CCC(C(=O)N2CCc3ccccc3C2)CC1` [2-{1-[5-(pyridin-4-yl)-1H-pyrazole-3-carbonyl]piperidine-4-carbonyl}-1,2,3,4-tetrahydroisoquinoline], the AC50 is over 1000 nM.

Turning to `COc1cc(-c2cc(C(=O)N3CCC(C(=O)NCc4nccn4C)CC3)n[nH]2)c(Cl)cn1` [1-[5-(5-chloro-2-methoxypyridin-4-yl)-1H-pyrazole-3-carbonyl]-N-[(1-methyl-1H-imidazol-2-yl)methyl]piperidine-4-carboxamide], the AC50 was over 1000 nM.

Take `COc1cc(-c2cc(C(=O)N3CC[C@@H](C(=O)NC4CCS(=N)(=O)CC4)CC34CC4)n[nH]2)c(F)cn1` (stereo partly drawn) [(7R)-4-[5-(5-fluoro-2-methoxypyridin-4-yl)-1H-pyrazole-3-carbonyl]-N-(1-imino-1-oxo-1λ^6-thian-4-yl)-4-azaspiro[2.5]octane-7-carboxamide]: the AC50 is over 1000 nM.

Consider `COc1cc(-c2cc(C(=O)N3CCC(C(=O)NC4CCN(C(C)(C)C)CC4)CC3)n[nH]2)c(Cl)cn1` [N-(1-tert-butylpiperidin-4-yl)-1-[5-(5-chloro-2-methoxypyridin-4-yl)-1H-pyrazole-3-carbonyl]piperidine-4-carboxamide], for which the AC50 is over 1000 nM.

Consider `COc1cc(-c2cc(C(=O)N3CC4CC3CC4C(=O)NC3CCC(O)(C(F)(F)F)CC3)n[nH]2)c(F)cn1` (centres unmarked), for which the AC50 is over 1000 nM.

As for `COc1cc(-c2cc(C(=O)N3CC4CCC(C3)C4C(=O)NCc3cccc(Cl)c3)n[nH]2)c(F)cn1` (centres unmarked) [N-[(3-chlorophenyl)methyl]-3-[5-(5-fluoro-2-methoxypyridin-4-yl)-1H-pyrazole-3-carbonyl]-3-azabicyclo[3.2.1]octane-8-carboxamide], the AC50 is over 1000 nM.

For the compound `COc1cc(-c2cc(C(=O)N3CCC(C(=O)NC45CCC(C)(C4)OC5)CC3)n[nH]2)c(Cl)cn1` (centres unmarked) [1-[5-(5-chloro-2-methoxypyridin-4-yl)-1H-pyrazole-3-carbonyl]-N-{1-methyl-2-oxabicyclo[2.2.1]heptan-4-yl}piperidine-4-carboxamide], the AC50 was over 1000 nM.

As to `COc1cc(-c2cc(C(=O)N3CCC(C(=O)NCc4cnco4)CC3)n[nH]2)c(Cl)cn1` [1-[5-(5-chloro-2-methoxypyridin-4-yl)-1H-pyrazole-3-carbonyl]-N-[(1,3-oxazol-5-yl)methyl]piperidine-4-carboxamide], the AC50 is over 1000 nM.

For `COc1cc(-c2cc(C(=O)N3CCC(C(=O)NCc4cccc(Cl)c4)CC3)n[nH]2)c(C)cn1` [N-[(3-chlorophenyl)methyl]-1-[5-(2-methoxy-5-methylpyridin-4-yl)-1H-pyrazole-3-carbonyl]piperidine-4-carboxamide], the AC50 is over 1000 nM.

In the case of `COc1cc(-c2cc(C(=O)N3CCC(C(=O)NCC4(N(C)C)CCCC4)CC3)n[nH]2)c(Cl)cn1` [1-[5-(5-chloro-2-methoxypyridin-4-yl)-1H-pyrazole-3-carbonyl]-N-{[1-(dimethylamino)cyclopentyl]methyl}piperidine-4-carboxamide], the AC50 was over 1000 nM.

Turning to `Cc1cccc(CNC(=O)C2CCCN(C(=O)c3cc(-c4ccncc4)[nH]n3)C2)c1` (centres unmarked) [N-[(3-methylphenyl)methyl]-1-[5-(pyridin-4-yl)-1H-pyrazole-3-carbonyl]piperidine-3-carboxamide], the AC50 was over 1000 nM.

As for `COc1cc(-c2cc(C(=O)N3CCC(C(=O)NC4COC(C)OC4)CC3)n[nH]2)c(F)cn1` (centres unmarked) [1-[5-(5-fluoro-2-methoxypyridin-4-yl)-1H-pyrazole-3-carbonyl]-N-(2-methyl-1,3-dioxan-5-yl)piperidine-4-carboxamide], the AC50 was over 1000 nM.

Regarding `CC(C)(C)CNC(=O)C1CCN(C(=O)c2cc(-c3ccncc3)[nH]n2)CC1` [N-(2,2-dimethylpropyl)-1-[5-(pyridin-4-yl)-1H-pyrazole-3-carbonyl]piperidine-4-carboxamide], the AC50 was over 1000 nM.

Regarding `CC1CCC(NC(=O)C2CCN(C(=O)c3cc(-c4ccnc(OC5CC5)c4)[nH]n3)CC2)CC1` (centres unmarked) [1-[5-(2-cyclopropoxypyridin-4-yl)-1H-pyrazole-3-carbonyl]-N-(4-methylcyclohexyl)piperidine-4-carboxamide], the AC50 was over 1000 nM.
